Converted amounts (≈) assume the structure as drawn. “And” between values parts separate entries of the source, which are not always exact repeats. Equal entries are not always repeated.
Columns and labels:
A. baumannii ATCC 19606 = test: MIC studies in LB Media; format: cell-based; settings: Acinetobacter baumannii, ATCC19606, read-out: Minimum Inhibitory Concentration in LB Media, A. ba
Procedure: (§1) Bacterial cultures that were stored as glycerol stocks at −80° C. were sub cultured on LB agar plates to obtain isolated colonies. A single colony of each strain was cultured in LB broth. The cultures were incubated at 37° C., 200 rpm till they reach an optical density (OD at 600 nm) of 0.8 to 1. […] Test compounds were dissolved in dimethyl sulfoxide (DMSO) to a stock concentration of 4 mg/ml. A two-fold dilution series of this DMSO stock was prepared in a 96 well V bottom microtitre plate from rows A to H. A 3 μL volume of these dilutions were transferred to a 96-well flat bottom microtitre assay plate. Controls to monitor the effects of DMSO and media sterility were included. Each well was inoculated with 150 μL of the above diluted culture. The plates were incubated at 37° C. overnight in a humidified incubator. The following morning, the plates were read using a Spectrophotometer at 600 nm wavelength.

E. coli ATCC 25922 = test: MIC studies in LB Media; format: cell-based; settings: Escherichia coli, ATCC25922, read-out: Minimum Inhibitory Concentration in LB Media, E. co
Procedure: as §1

E. faecalis ATCC 29212 = test: MIC studies in LB Media; format: cell-based; settings: Enterococcus faecalis, ATCC29212, read-out: Minimum Inhibitory Concentration in LB Media, E. fa
Procedure: as §1

K. pneumoniae ATCC 13883 = test: MIC studies in LB Media; format: cell-based; settings: Klebsiella pneumoniae, ATCC13883, read-out: Minimum Inhibitory Concentration in LB Media, K. pn
Procedure: as §1

P. aurigenosa ATCC 27853 = test: MIC studies in LB Media; format: cell-based; settings: Pseudomonas aeruginosa, ATCC27853, read-out: Minimum Inhibitory Concentration in LB Media, P. ae
Procedure: as §1

S. aureus ATCC 29213 = test: MIC studies in LB Media; format: cell-based; settings: Staphylococcus aureus, ATCC29213, MIC = 90% inhibition of growth, read-out: Minimum Inhibitory Concentration in LB Media, S. au
Procedure: as §1

E. coli DNA gyrase = E. coli DNA gyrase (Escherichia coli, UniProt P0AES4+P0AES6); test: biochemical; settings: gel based supercoiling assay; read-out: E. coli DNA Gyrase IC50
Sequence of E. coli DNA gyrase (P0AES4 whole entry, one chain of several): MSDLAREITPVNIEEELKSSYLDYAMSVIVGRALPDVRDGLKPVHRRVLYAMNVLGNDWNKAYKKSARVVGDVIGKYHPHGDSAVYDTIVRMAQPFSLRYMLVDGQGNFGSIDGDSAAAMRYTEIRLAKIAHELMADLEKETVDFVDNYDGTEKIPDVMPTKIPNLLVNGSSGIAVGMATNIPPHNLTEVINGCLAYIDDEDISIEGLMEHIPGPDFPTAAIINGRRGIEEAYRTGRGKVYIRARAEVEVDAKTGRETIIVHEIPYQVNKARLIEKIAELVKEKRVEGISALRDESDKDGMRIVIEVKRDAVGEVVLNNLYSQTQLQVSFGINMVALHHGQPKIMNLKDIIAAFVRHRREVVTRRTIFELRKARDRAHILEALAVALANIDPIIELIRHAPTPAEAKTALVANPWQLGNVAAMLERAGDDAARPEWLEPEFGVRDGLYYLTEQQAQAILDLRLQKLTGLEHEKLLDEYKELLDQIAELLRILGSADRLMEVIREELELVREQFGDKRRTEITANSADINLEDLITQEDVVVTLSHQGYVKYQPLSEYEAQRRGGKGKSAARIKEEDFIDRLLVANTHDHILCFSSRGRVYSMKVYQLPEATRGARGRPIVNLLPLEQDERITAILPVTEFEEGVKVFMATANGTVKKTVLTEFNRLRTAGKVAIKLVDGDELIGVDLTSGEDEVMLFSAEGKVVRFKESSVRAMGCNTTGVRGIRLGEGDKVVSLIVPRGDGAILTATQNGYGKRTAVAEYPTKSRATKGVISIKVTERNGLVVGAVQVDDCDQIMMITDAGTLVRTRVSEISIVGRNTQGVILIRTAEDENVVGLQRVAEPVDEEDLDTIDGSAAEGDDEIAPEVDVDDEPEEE

E. coli topoisomerase IV = E. coli topoisomerase IV (Escherichia coli, UniProt P0AFI2+P20083); test: biochemical; settings: gel based decatenation assay; read-out: E. coli Topo IV IC50
Sequence of E. coli topoisomerase IV (P20083 whole entry): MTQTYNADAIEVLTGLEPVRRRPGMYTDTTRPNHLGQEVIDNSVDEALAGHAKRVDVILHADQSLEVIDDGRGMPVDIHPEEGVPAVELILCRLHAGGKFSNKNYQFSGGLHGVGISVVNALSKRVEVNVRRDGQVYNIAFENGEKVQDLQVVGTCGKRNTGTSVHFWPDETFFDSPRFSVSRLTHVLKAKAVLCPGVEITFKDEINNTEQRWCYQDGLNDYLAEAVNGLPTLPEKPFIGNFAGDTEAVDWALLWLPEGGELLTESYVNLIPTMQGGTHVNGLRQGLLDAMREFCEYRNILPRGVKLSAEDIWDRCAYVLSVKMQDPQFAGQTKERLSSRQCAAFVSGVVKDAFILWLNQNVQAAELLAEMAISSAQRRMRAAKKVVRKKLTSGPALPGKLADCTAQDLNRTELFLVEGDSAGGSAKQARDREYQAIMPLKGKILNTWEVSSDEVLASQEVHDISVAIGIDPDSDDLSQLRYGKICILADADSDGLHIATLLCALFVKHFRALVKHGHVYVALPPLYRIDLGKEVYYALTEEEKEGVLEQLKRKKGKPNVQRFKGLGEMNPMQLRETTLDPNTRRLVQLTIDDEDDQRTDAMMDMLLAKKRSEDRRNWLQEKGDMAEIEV
Sequence of E. coli topoisomerase IV (P0AFI2 whole entry): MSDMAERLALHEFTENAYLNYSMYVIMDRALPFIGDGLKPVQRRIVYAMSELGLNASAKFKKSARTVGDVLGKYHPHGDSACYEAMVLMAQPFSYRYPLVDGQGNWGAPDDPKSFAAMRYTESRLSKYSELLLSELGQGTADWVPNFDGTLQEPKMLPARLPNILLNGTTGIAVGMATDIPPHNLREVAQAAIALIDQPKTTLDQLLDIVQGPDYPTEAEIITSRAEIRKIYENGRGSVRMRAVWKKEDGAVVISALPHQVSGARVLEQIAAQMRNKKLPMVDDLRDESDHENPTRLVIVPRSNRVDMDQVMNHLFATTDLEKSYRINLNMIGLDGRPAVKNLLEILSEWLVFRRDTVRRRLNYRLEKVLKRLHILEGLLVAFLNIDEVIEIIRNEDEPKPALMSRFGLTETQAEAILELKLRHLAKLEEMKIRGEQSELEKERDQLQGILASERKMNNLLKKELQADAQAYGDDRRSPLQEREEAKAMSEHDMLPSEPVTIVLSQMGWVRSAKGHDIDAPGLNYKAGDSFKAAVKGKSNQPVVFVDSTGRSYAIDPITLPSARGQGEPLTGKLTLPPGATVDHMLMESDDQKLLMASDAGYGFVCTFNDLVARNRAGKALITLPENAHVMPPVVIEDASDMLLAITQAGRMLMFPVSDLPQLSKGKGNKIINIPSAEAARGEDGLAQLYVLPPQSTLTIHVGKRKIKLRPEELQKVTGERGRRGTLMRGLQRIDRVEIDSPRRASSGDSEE

hERG potassium channel = target: T1, hERG potassium channel (Homo sapiens, UniProt Q12809); test: hERG inhibition assay, QPatch HTX automated electrophysiology; format: cell-based; settings: CHO cell line expressing hERG; whole-cell patch clamp, room temperature
T1 construct: Chinese Hamster Ovary cell line stably expressing the full-length hERG potassium channel; expressed in transfected cells
T1 sequence (Q12809 whole entry): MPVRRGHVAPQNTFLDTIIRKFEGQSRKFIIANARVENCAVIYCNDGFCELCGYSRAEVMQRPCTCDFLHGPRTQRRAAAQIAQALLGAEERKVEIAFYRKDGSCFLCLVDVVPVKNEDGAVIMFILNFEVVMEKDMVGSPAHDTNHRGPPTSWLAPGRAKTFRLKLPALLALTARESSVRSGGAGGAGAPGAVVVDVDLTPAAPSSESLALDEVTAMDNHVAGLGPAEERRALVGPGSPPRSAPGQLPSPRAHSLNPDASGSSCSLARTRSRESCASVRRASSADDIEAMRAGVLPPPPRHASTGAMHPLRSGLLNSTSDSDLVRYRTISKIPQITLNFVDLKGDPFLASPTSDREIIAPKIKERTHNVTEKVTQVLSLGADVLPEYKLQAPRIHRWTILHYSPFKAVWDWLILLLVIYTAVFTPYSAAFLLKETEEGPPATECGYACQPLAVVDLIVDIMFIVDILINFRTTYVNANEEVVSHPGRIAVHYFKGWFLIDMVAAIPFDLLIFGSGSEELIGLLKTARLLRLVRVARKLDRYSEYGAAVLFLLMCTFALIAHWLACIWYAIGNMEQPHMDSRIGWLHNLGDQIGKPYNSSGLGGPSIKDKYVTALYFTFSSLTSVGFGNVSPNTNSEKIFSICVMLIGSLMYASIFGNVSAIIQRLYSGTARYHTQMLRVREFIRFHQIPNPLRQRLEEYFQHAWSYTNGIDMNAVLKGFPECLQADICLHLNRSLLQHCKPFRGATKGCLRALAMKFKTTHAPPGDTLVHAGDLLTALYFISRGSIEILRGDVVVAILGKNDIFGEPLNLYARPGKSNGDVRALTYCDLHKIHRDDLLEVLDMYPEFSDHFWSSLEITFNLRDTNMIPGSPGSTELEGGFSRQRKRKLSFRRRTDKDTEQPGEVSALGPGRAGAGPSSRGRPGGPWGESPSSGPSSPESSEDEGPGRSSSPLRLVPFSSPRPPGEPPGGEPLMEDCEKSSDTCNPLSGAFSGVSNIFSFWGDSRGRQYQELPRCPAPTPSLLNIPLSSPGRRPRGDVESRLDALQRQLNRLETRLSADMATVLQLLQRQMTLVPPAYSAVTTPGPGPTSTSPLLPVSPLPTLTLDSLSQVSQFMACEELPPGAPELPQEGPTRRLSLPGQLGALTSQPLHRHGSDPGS
Procedure: The compounds were tested for inhibition of the human ether a go-go related gene (hERG) K+ channel using QPatch HTX automated electrophysiology.
Compounds of Formula I were solubilised to 100 mM in DMSO before dilution in HBPS to 300 μM.
Electrophysiological recordings were made from a Chinese Hamster Ovary cell line stably expressing the full-length hERG potassium channel. Single cell ionic currents were measured in whole-cell patch clamp configuration at room temperature (21-23° C.) using the QPatch HTX platform (Sophion). Intracellular solution contained (mM): 120 KF, 20 KCl, 10 EGTA, 10 HEPES and was buffered to pH 7.3. […] Cells were clamped at a holding potential of −80 mV. Cells were stepped to +20 mV for 2 s then −40 mV for 3 s before returning to the holding potential. This sweep was repeated 10 times at 10 s intervals. hERG currents were measured from the tail step and referenced to the holding current. Compounds were then incubated for 2 minutes prior to a second measurement of ion channel current using an identical pulse train.

[1] = tested on: Citrobacter freundii ATCC 43864; test: MIC studies in LB Media; format: cell-based; settings: ATCC43864, read-out: Minimum Inhibitory Concentration in LB Media, C. fr
Procedure: as §1

[2] = tested on: Enterobacter cloacae ATCC 13047; test: MIC studies in LB Media; format: cell-based; settings: ATCC13047, read-out: Minimum Inhibitory Concentration in LB Media, E. cl
Procedure: as §1

[3] = tested on: Morganella morganii ATCC 25830; test: MIC studies in LB Media; format: cell-based; settings: ATCC25830, read-out: Minimum Inhibitory Concentration in LB Media, M. mo
Procedure: as §1

[4] = tested on: Proteus mirabilis ATCC 43071; test: MIC studies in LB Media; format: cell-based; settings: ATCC43071, read-out: Minimum Inhibitory Concentration in LB Media, P. mi
Procedure: as §1

E. coli [ATCC25922] = test: Neutropenic Thigh Infection Model in Rat, E. coli; format: in vivo; settings: 10 mg/kg, i.v. bolus
[5] = tested on: K. pneumoniae [ATCC13883]; test: Neutropenic Thigh Infection Model in Rat, K. pneumoniae; format: in vivo; settings: 10 mg/kg, i.v. bolus
[6] = individual animals, 10 hr post infection

Compound	MIC (A. baumannii ATCC 19606) [µg/mL]	MIC (E. coli ATCC 25922) [µg/mL]	MIC (E. faecalis ATCC 29212) [µg/mL]	MIC (K. pneumoniae ATCC 13883) [µg/mL]	MIC (P. aurigenosa ATCC 27853) [µg/mL]	MIC (S. aureus ATCC 29213) [µg/mL]	IC50 (E. coli DNA gyrase) [µM]	IC50 (E. coli topoisomerase IV) [µM]	IC50 (hERG potassium channel) [µM]	MIC [1] [µg/mL]	MIC [2] [µg/mL]	MIC [3] [µg/mL]	MIC [4] [µg/mL]	Mean Log 10 CFU/thigh reduction (wrt 2 h PI control: 5.04 Log10CFU/g thigh) (E. coli [ATCC25922]) [Log 10 CFU/thigh]	MEAN ± SD (Log10 CFU/g thigh) (E. coli [ATCC25922]; 10 hr post infection)	Log10 CFU/g thigh (E. coli [ATCC25922]; [6])	MEAN ± SD (Log10 CFU/g thigh) [5] [Log10 CFU/g thigh]	Mean Log 10 CFU/thigh reduction (wrt 2 h PI control: 5.04 Log10CFU/g thigh) [5] [Log 10 CFU/thigh]	Log10 CFU/g thigh [5, 6]
Cc1cc(=O)n(C)c2c(OCCNC[C@H]3CN(c4cnc5c(n4)NC(=O)CO5)C(=O)O3)c(F)ccc12 [Compound 5, (S)-6-(5-(((2-((7-fluoro-1,4-dimethyl-2-oxo-1,2-dihydroquinolin-8-yl)oxy)ethyl)amino)methyl)-2-oxooxazolidin-3-yl)-2H-pyrazino[2,3-b][1,4]oxazin-3(4H)-one]	0.25 (≈ 0.502 µM)	0.06 (≈ 0.12 µM)	0.125 (≈ 0.251 µM)	0.25 (≈ 0.502 µM)	1 (≈ 2.01 µM)	0.125 (≈ 0.251 µM)	0.033	< 0.187	71										
Cn1c(=O)cnc2ccc(F)c(OCCNC[C@H]3CN(c4cnc5c(n4)NC(=O)CS5)C(=O)O3)c21 [Compound 10, (S)-5-(((2-((6-fluoro-4-methyl-3-oxo-3,4-dihydroquinoxalin-5-yl)oxy)ethyl)amino)methyl)-3-(3-oxo-3,4-dihydro-2H-pyrazino[2,3-b][1,4]thiazin-6-yl)oxazolidin-2-one]	0.013 (≈ 0.0259 µM)	0.025 (≈ 0.0499 µM)	0.025 (≈ 0.0499 µM)	0.025 (≈ 0.0499 µM)	0.25 (≈ 0.499 µM)	≤ 0.003	0.022	< 0.37	19	0.025 (≈ 0.0499 µM)	0.05 (≈ 0.0997 µM)	0.025 (≈ 0.0499 µM)	0.125 (≈ 0.249 µM)						
O=C(O)c1cn(C2CC2)c2cc(N3CCNCC3)c(F)cc2c1=O [Ciprofloxacin, ciprofloxacin, reference compound]														2.12	3.73 ± 0.21	3.74 Log10 CFU/g thigh and 3.94 Log10 CFU/g thigh and 3.52 Log10 CFU/g thigh	3.30 ± 0.11	1.74	3.22 Log10 CFU/g thigh and 3.25 Log10 CFU/g thigh and 3.42 Log10 CFU/g thigh
CC(COc1c(F)ccc2ccc(=O)n(C)c12)NC[C@H]1CN(c2cnc3c(n2)NC(=O)CO3)C(=O)O1 (stereo partly drawn) [Compound 4, 6-((5S)-5-(((1-((7-fluoro-1-methyl-2-oxo-1,2-dihydroquinolin-8-yl)oxy)propan-2-yl)amino)methyl)-2-oxooxazolidin-3-yl)-2H-pyrazino[2,3-b][1,4]oxazin-3(4H)-one]	0.25 (≈ 0.502 µM)	0.25 (≈ 0.502 µM)	0.125 (≈ 0.251 µM)	0.25 (≈ 0.502 µM)	2 (≈ 4.01 µM)	0.06 (≈ 0.12 µM)	0.03	< 0.35	36	0.5 (≈ 1 µM)	0.5 (≈ 1 µM)	1 (≈ 2.01 µM)	2 (≈ 4.01 µM)						
Cn1c(=O)ccc2ccc(F)c(OCCNC[C@@H]3CN(c4cnc5c(n4)NC(=O)CO5)C(=O)O3)c21 [Compound 3, (R)-6-(5-(((2-((7-fluoro-1-methyl-2-oxo-1,2-dihydroquinolin-8-yl)oxy)ethyl)amino)methyl)-2-oxooxazolidin-3-yl)-2H-pyrazino[2,3-b][1,4]oxazin-3(4H)-one]	0.06 (≈ 0.124 µM)	0.06 (≈ 0.124 µM)	0.06 (≈ 0.124 µM)	0.06 (≈ 0.124 µM)	0.5 (≈ 1.03 µM)	0.015 (≈ 0.031 µM)	0.011		25	0.06 (≈ 0.124 µM)	0.125 (≈ 0.258 µM)	0.03 (≈ 0.0619 µM)	0.125 (≈ 0.258 µM)						
Cn1c(=O)cnc2ccc(F)c(OCCNC[C@@H]3CN(c4cnc5c(n4)NC(=O)CO5)C(=O)O3)c21 [Compound 8, (R)-6-(5-(((2-((6-fluoro-4-methyl-3-oxo-3,4-dihydroquinoxalin-5-yl)oxy)ethyl)amino)methyl)-2-oxooxazolidin-3-yl)-2H-pyrazino[2,3-b][1,4]oxazin-3(4H)-one]	0.06 (≈ 0.124 µM)	0.03 (≈ 0.0618 µM)	0.06 (≈ 0.124 µM)	0.06 (≈ 0.124 µM)	0.5 (≈ 1.03 µM)	≤ 0.015			58	0.06 (≈ 0.124 µM)	0.125 (≈ 0.258 µM)	0.03 (≈ 0.0618 µM)	0.25 (≈ 0.515 µM)						
Cn1c(=O)ccc2ncc(Cl)c(OCCNC[C@H]3CN(c4cnc5c(n4)NC(=O)CO5)C(=O)O3)c21 [Compound 6, (S)-6-(5-(((2-((3-chloro-5-methyl-6-oxo-5,6-dihydro-1,5-naphthyridin-4-yl)oxy)ethyl)amino)methyl)-2-oxooxazolidin-3-yl)-2H-pyrazino[2,3-b][1,4]oxazin-3(4H)-one]	> 4	> 4	> 4	> 4	> 4	> 4	6.33	17.7		> 4	> 4	> 4	> 4						
Cc1nc2ccc(F)c(OCCNC[C@H]3CN(c4cnc5c(n4)NC(=O)CO5)C(=O)O3)c2n(C)c1=O [Compound 9, (S)-6-(5-(((2-((6-fluoro-2,4-dimethyl-3-oxo-3,4-dihydroquinoxalin-5-yl)oxy)ethyl)amino)methyl)-2-oxooxazolidin-3-yl)-2H-pyrazino[2,3-b][1,4]oxazin-3(4H)-one]	0.125 (≈ 0.25 µM)	0.125 (≈ 0.25 µM)	0.25 (≈ 0.501 µM)	0.5 (≈ 1 µM)	4 (≈ 8.01 µM)	≤ 0.06	0.04			0.25 (≈ 0.501 µM)	1 (≈ 2 µM)	0.5 (≈ 1 µM)	2 (≈ 4 µM)						
